≈ marks a conversion by molar mass, not a printed value. Where two headings read alike, the source gives them in different places.

Experiment [1] concerns M. tuberculosis inside the host macrophage. The experiment is described as follows: QIM: Quantification of Intracellular Mycobacteria (intracellular growth assay, phenotypic cell-based). To be noted: Mycobacterium tuberculosis. From the text: Accordingly, a phenotypic cell-based assay, suitable for high throughput screening, which allows for the search of compounds that would prevent M. tuberculosis multiplication inside the host macrophage was utilized (WO2010003533A2), overcoming many of the numerous and burdensome steps involved in previous methodologies (Arain et al., 1996).
(§1) A 120,000 small molecule compound library was screened using a validated phenotypic cell-based assay (WO2010003533A2). Active compounds from the primary screen were confirmed via dose response in the intracellular (QIM) assay and an in vitro (QUM) assay, wherein the abbreviation “QIM” stands for Quantification of Intracellular Mycobacteria and the abbreviation “QUM” stands for Quantification of in vitro grown Mycobacteria. […] The MIC is the minimum concentration of compound required to obtain 80% bacterial growth inhibition.
(§2) The imidazopyridine compounds (scaffolds Ia and Ib; see Table 1) underwent derivatization according to the methods outlined below (Schemes 1-13). Resulting derivatives were examined for inhibitory activity (MIC) using the assays described above (Example 1) and the results are summarized in Table 1.

Experiment [2] deals with in vitro grown Mycobacteria (M. tuberculosis). Briefly: QUM: Quantification of in vitro grown Mycobacteria (in vitro growth fluorescence assay). As to conditions: Mycobacterium tuberculosis. It counts as cell-based.
Text: as §1, §2

[3] abbreviates: MIC, 80% bacterial growth inhibition, intracellular growth, read-out: QIM.
The mark [4] stands for this setting: MIC, 80% bacterial growth inhibition, in vitro growth, read-out: QUM.

With `Cc1nc2ccccn2c1C(=O)O` [Compound 1, 2-Methylimidazo[1,2-a]pyridine-3-carboxylic acid], the MIC in experiment [1] (setting [3]) and in experiment [2] (setting [4]) was > 20 µM throughout. `CCOC(=O)c1c(C)nc2cc(-c3ccccc3)ccn12` [Compound 2, Ethyl 2-methyl-7-phenylimidazo[1,2-a]pyridine-3-carboxylate]: the MIC in experiment [1] (setting [3]) and in experiment [2] (setting [4]) was > 20 µM each time. `Cc1nc2cc(-c3ccccc3)ccn2c1C(=O)O` [Compound 3, 2-Methyl-7-phenylimidazo[1,2-a]pyridine-3-carboxylic acid]: the MIC in experiment [1] (setting [3]) and in experiment [2] (setting [4]) was > 20 µM in each case. For `CCOC(=O)c1c(C)nc2ccc(-c3ccccc3)cn12` [Compound 4, Ethyl 2-methyl-6-phenylimidazo[1,2-a]pyridine-3-carboxylate], the MIC in experiment [1] (setting [3]) and in experiment [2] (setting [4]) was > 20 µM throughout.

For the molecule `Cc1nc2ccccn2c1C(=O)Nc1ccncc1` [Compound 5, 2-Methyl-N-(pyridin-4-yl)imidazo[1,2-a]pyridine-3-carboxamide], the MIC in experiment [1] (setting [3]) and in experiment [2] (setting [4]) was > 20 µM each time.

On to `Cc1nc2ccccn2c1C(=O)Nc1ccc(Oc2ccccc2)cc1` [Compound 6, 2-Methyl-N-(4-phenoxyphenyl)imidazo[1,2-a]pyridine-3-carboxamide], for which the MIC in experiment [1] (setting [3]) and in experiment [2] (setting [4]) was > 20 µM throughout.

With `Cc1nc2ccccn2c1C(=O)Nc1ccc(OCc2ccccc2)cc1` [Compound 7, N-(4-(Benzyloxy)phenyl)-2-methylimidazo[1,2-a]pyridine-3-carboxamide], the MIC in experiment [1] (setting [3]) and in experiment [2] (setting [4]) was > 20 µM in each case. In the case of `Cc1nc2ccccn2c1C(=O)NCc1ccccc1` [Compound 8, N-Benzyl-2-methylimidazo[1,2-a]pyridine-3-carboxamide], the MIC in experiment [1] (read-out: QIM (μM)) was 1 to 20 µM (≈ 0.265 to 5.31 µg/mL); in experiment [1] (dose response confirmation, 80% bacterial growth inhibition, read-out: minimum inhibitory concentration (MIC), QIM assay) it was 2.5 µM (≈ 0.663 µg/mL); in experiment [2] (read-out: QUM (μM)), > 20 µM; in experiment [2] (dose response confirmation, 80% bacterial growth inhibition, read-out: minimum inhibitory concentration (MIC), QUM assay) it was 5 µM (≈ 1.33 µg/mL). Take `Cc1nc2ccccn2c1C(=O)NCc1ccc(F)cc1` [Compound 9, N-(4-Fluorobenzyl)-2-methylimidazo[1,2-a]pyridine-3-carboxamide]: the MIC in experiment [1] (setting [3]) and in experiment [2] (setting [4]) was > 20 µM throughout. Regarding `COC(=O)c1ccc(CNC(=O)c2c(C)nc3ccccn23)cc1` [Compound 10, Methyl 4-((2-me3thylimidazo[1,2-a]pyridine-3-carboxamido)methyl)benzoate], the MIC in experiment [1] (setting [3]) is > 20 µM; in experiment [2] (setting [4]) it was 1 to 20 µM (≈ 0.323 to 6.47 µg/mL). For the molecule `Cc1nc2ccccn2c1C(=O)NCc1ccc(C(=O)O)cc1` [Compound 11, 4-((2-Methylimidazo[1,2-a]pyridine-3-carboxamido)methyl)benzoic acid], the MIC in experiment [1] (setting [3]) and in experiment [2] (setting [4]) was > 20 µM in each case. For the molecule `COc1ccc(CNC(=O)c2c(C)nc3ccccn23)cc1` [Compound 12, N-(4-Methoxybenzyl)-2-methylimidazo[1,2-a]pyridine-3-carboxamide], the MIC in experiment [1] (setting [3]) and in experiment [2] (setting [4]) was 1 to 20 µM (≈ 0.295 to 5.91 µg/mL) throughout. For the molecule `Cc1nc2ccccn2c1C(=O)NCc1cccnc1` [Compound 13, 2-Methyl-N-(pyridin-3-ylmethyl)imidazo[1,2-a]pyridine-3-carboxamide], the MIC in experiment [1] (setting [3]) and in experiment [2] (setting [4]) was > 20 µM in each case. For the molecule `Cc1nc2ccccn2c1C(=O)NCc1ccncc1` [Compound 14, 2-Methyl-N-(pyridin-4-ylmethyl)imidazo[1,2-a]pyridine-3-carboxamide], the MIC in experiment [1] (setting [3]) and in experiment [2] (setting [4]) was > 20 µM each time.

For the molecule `Cc1nc2ccccn2c1C(=O)NCc1ccc(Oc2ccccc2)cc1` [Compound 15, 2-Methyl-N-(4-phenoxybenzyl)imidazo[1,2-a]pyridine-3-carboxamide], the MIC in experiment [1] (setting [3]) is < 1 µM; in experiment [2] (setting [4]), 1 to 20 µM (≈ 0.357 to 7.15 µg/mL).

For `Cc1nc2ccccn2c1C(=O)NCc1ccc(-c2ccccc2)cc1` [Compound 16, N-(Biphenyl-4-ylmethyl)-2-methylimidazo[1,2-a]pyridine-3-carboxamide], the MIC in experiment [1] (setting [3]) and in experiment [2] (setting [4]) was < 1 µM in each case. In the case of `Cc1nc2ccccn2c1C(=O)NCc1ccc2[nH]ccc2c1` [Compound 17, N-((1H-Indol-5-yl)methyl)-2-methylimidazo[1,2-a]pyridine-3-carboxamide], the MIC in experiment [1] (setting [3]) and in experiment [2] (setting [4]) was 1 to 20 µM (≈ 0.304 to 6.09 µg/mL) each time. As for `Cc1nc2ccccn2c1C(=O)NCC1CCCCC1` [Compound 18, N-(Cyclohexylmethyl)-2-methylimidazo[1,2-a]pyridine-3-carboxamide], the MIC in experiment [1] (setting [3]) and in experiment [2] (setting [4]) was > 20 µM each time.

As for `Cc1nc2ccccn2c1C(=O)NCC1CCN(C(=O)OC(C)(C)C)CC1` [Compound 19, tert-Butyl 4-((2-methylimidazo[1,2-a]pyridine-3-carboxamido)methyl)piperidine-1-carboxylate], the MIC in experiment [1] (setting [3]) and in experiment [2] (setting [4]) was > 20 µM throughout.

As to `Cc1nc2ccccn2c1C(=O)NCC1CCNCC1` [Compound 20, 2-Methyl-N-(piperidin-4-ylmethyl)imidazo[1,2-a]pyridine-3-carboxamide], the MIC in experiment [1] (setting [3]) and in experiment [2] (setting [4]) was > 20 µM in each case. Consider `Cc1nc2ccccn2c1C(=O)NCCc1ccccc1` [Compound 21, 2-Methyl-N-phenethylimidazo[1,2-a]pyridine-3-carboxamide], for which the MIC in experiment [1] (setting [3]) and in experiment [2] (setting [4]) was > 20 µM each time. Consider `COc1ccc(CCNC(=O)c2c(C)nc3ccccn23)cc1` [Compound 22, N-(4-Methoxyphenethyl)-2-methylimidazo[1,2-a]pyridine-3-carboxamide], for which the MIC in experiment [1] (setting [3]) and in experiment [2] (setting [4]) was > 20 µM in each case. As to `Cc1nc2ccccn2c1C(=O)NCCOc1ccccc1` [Compound 23, 2-Methyl-N-(2-phenoxyethyl)imidazo[1,2-a]pyridine-3-carboxamide], the MIC in experiment [1] (setting [3]) and in experiment [2] (setting [4]) was 1 to 20 µM (≈ 0.295 to 5.91 µg/mL) each time.

For the molecule `Cc1nc2ccccn2c1C(=O)NCCOCc1ccccc1` [Compound 24, N-(2-(Benzyloxy)ethyl)-2-methylimidazo[1,2-a]pyridine-3-carboxamide], the MIC in experiment [1] (setting [3]) and in experiment [2] (setting [4]) was > 20 µM each time. `COC(=O)[C@H](Cc1ccccc1)NC(=O)c1c(C)nc2ccccn12` [Compound 25, (S)-Methyl 2-(2-methylimidazo[1,2-a]pyridine-3-carboxamido)-3-phenylpropanoate]: the MIC in experiment [1] (setting [3]) and in experiment [2] (setting [4]) was > 20 µM each time. As for `Cc1nc2ccccn2c1NC(=O)Cc1ccccc1` [Compound 26, N-(2-Methylimidazo[1,2-a]pyridin-3-yl)-2-phenylacetamide], the MIC in experiment [1] (setting [3]) and in experiment [2] (setting [4]) was > 20 µM throughout. Turning to `Cc1nc2c(Cl)cccn2c1C(=O)NCc1ccccc1` [Compound 27, N-Benzyl-8-chloro-2-methylimidazo[1,2-a]pyridine-3-carboxamide], the MIC in experiment [1] (setting [3]) and in experiment [2] (setting [4]) was > 20 µM in each case. `Cc1nc2cc(Cl)ccn2c1C(=O)NCc1ccccc1` [Compound 28, N-Benzyl-7-chloro-2-methylimidazo[1,2-a]pyridine-3-carboxamide]: the MIC in experiment [1] (setting [3]) is 1 to 20 µM (≈ 0.3 to 6 µg/mL); in experiment [2] (setting [4]), > 20 µM.

For the molecule `Cc1nc2ccc(Cl)cn2c1C(=O)NCc1ccccc1` [Compound 29, N-Benzyl-6-chloro-2-methylimidazo[1,2-a]pyridine-3-carboxamide], the MIC in experiment [1] (setting [3]) and in experiment [2] (setting [4]) was 1 to 20 µM (≈ 0.3 to 6 µg/mL) in each case.

`CCc1nc2ccc(Cl)cn2c1C(=O)NCc1ccc(N2CCC(C(=O)N(C)C)CC2)cc1` [Compound 345, 6-Chloro-N-(4-(4-(dimethylcarbamoyl)piperidin-1-yl)benzyl)-2-ethylimidazo[1,2-a]pyridine-3-carboxamide]: the MIC in experiment [2] (setting [4]) was < 1 µM.

Take `CCc1nc2cc(Cl)ccn2c1C(=O)NCc1ccc(N2CCC(C(=O)N(C)C)CC2)cc1` [Compound 346, 7-Chloro-N-(4-(4-(dimethylcarbamoyl)piperidin-1-yl)benzyl)-2-ethylimidazo[1,2-a]pyridine-3-carboxamide]: the MIC in experiment [2] (setting [4]) was < 1 µM. On the same count and under the same terms, the same measure for `CCc1nc2ccc(Cl)cn2c1C(=O)NCc1ccc(N2CCC(OCc3ccc(F)cc3)CC2)cc1` [Compound 347, 6-Chloro-2-ethyl-N-(4-(4-(4-fluorobenzyloxy)piperidin-1-yl)benzyl)imidazo[1,2-a]pyridine-3-carboxamide]: < 1 µM; for `CCc1nc2cc(Cl)ccn2c1C(=O)NCc1ccc(N2CCC(OCc3ccc(F)cc3)CC2)cc1` [Compound 348, 7-Chloro-2-ethyl-N-(4-(4-(4-fluorobenzyloxy)piperidin-1-yl)benzyl)imidazo[1,2-a]pyridine-3-carboxamide]: 1 to 20 µM (≈ 0.521 to 10.4 µg/mL). The same measure, in the same setting: in the case of `CCc1nc2cc(Cl)ccn2c1C(=O)NCc1ccc(N2CCOCC2)c(Cl)c1` [Compound 350, 7-Chloro-N-(3-chloro-4-morpholinobenzyl)-2-ethylimidazo[1,2-a]pyridine-3-carboxamide] it was < 1 µM; in that of `CCc1nc2ccc(Cl)cn2c1C(=O)NCc1ccc(N2CCC(C=O)CC2)cc1` [Compound 351, 6-Chloro-2-ethyl-N-(4-(4-formylpiperidin-1-yl)benzyl)imidazo[1,2-a]pyridine-3-carboxamide], < 1 µM. Still for that read-out and setting: the same measure for `CCc1nc2cc(Cl)ccn2c1C(=O)NCc1ccc(N2CCC(C=O)CC2)cc1` [Compound 352, 7-Chloro-2-ethyl-N-(4-(4-formylpiperidin-1-yl)benzyl)imidazo[1,2-a]pyridine-3-carboxamide]: < 1 µM.
